Experimental data reported in patent publication US20220002279A1, “NOVEL IMIDAZOLE DERIVATIVE” (priority 2018, published 2022).
Converted amounts (≈) assume the structure as drawn.

Key:
[1] = molecular target: T1, Pseudomonas aeruginosa LpxC enzyme (Pseudomonas aeruginosa, UniProt P47205); assay: Inhibitory activity on Pseudomonas aeruginosa LpxC enzyme (fluorescamine method); type: biochemical; details: fluorescamine detection; 3.6 nmol/L enzyme, 20 μmol/L substrate, pH 8.0, 60 min
T1 construct: made in house; host or cells: Escherichia coli
T1 sequence (P47205 1-303): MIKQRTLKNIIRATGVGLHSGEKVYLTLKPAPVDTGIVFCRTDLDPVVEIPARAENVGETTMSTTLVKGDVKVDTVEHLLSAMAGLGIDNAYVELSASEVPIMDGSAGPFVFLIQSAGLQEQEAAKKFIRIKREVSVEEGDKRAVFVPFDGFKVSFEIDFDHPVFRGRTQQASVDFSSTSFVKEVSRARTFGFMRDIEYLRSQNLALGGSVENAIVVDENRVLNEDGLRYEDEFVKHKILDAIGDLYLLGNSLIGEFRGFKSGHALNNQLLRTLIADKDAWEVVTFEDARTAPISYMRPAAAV
Source text: Test Example 1 Evaluation of the Inhibitory Activity on Pseudomonas aeruginosa LpxC Enzyme (Fluoresamine Method)
To assay the activity of Pseudomonas aeruginosa LpxC enzyme, LpxC was reacted with its substrate, UDP-3-O-(R-3-hydroxydecanoyl)-N-acetylglucosamine, and the amount of the reaction product was quantified by the amino groups present in the product.
Specifically, to 3.6 nmol/L Pseudomonas aeruginosa LpxC enzyme (as acquired by preparing chromosomal DNA from Pseudomonas aeruginosa, obtaining the Pseudomonas aeruginosa LpxC genes by PCR (polymerase chain reaction) using LpxC specific primer, and incorporating the genes into a vector, followed by expression using Escherichia coli), 20 μmol/L UDP-3-O-(R-3-hydroxydecanoyl)-N-acetylglucosamine (Carbosynth) was added, and the mixture was incubated at room temperature for 60 minutes. This reaction was performed in a 40 mmol/L-HEPES buffer solution (pH 8.0) containing 0.02% Brij 35 and 25 nmol/L-zinc chloride. The reaction was terminated by the addition of 1.0 mg/mL-fluorescamine dissolved in a solvent obtained by mixing an equal amount of acetonitrile and dimethylformamide with the reaction mixture, and then, a 0.2 mol/L-sodium phosphate buffer solution (pH 8.0) was added thereto, and the amount of the reaction product was detected at an excitation wavelength/fluorescence wavelength=390 nm/495 nm. An inhibition curve was obtained by performing the aforementioned reaction in the presence of various concentrations of test compounds. From this inhibition curve, the concentration of test compound at which the amount of the reaction product was suppressed by 50% (IC50 value) was determined, which was used as an index for the inhibitory activity on Pseudomonas aeruginosa LpxC enzyme.

[2] = molecular target: T2, Escherichia coli LpxC enzyme (Escherichia coli, UniProt P0A725); assay: Inhibitory activity on Escherichia coli LpxC enzyme (fluorescamine method); type: biochemical; details: fluorescamine detection; 3.1 nmol/L enzyme, 20 μmol/L substrate, pH 6.5, 120 min; read-out: IC50 (inhibitory activity on Escherichia coli LpxC enzyme, Fluoresamine method)
T2 construct: made in house; host or cells: Escherichia coli
T2 sequence (P0A725 1-305): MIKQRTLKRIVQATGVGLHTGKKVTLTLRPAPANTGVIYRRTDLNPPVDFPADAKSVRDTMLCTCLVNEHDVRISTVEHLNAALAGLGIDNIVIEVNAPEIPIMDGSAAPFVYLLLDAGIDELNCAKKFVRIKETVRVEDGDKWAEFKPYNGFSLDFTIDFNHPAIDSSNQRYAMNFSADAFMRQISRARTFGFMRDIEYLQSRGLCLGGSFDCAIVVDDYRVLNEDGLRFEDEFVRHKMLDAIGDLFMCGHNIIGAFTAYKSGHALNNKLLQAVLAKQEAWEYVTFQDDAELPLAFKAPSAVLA
Method in brief: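 LpxC reacted with UDP-3-O-(R-3-hydroxymyristoyl)-N-acetylglucosamine; product amine quantified after fluorescamine stop and pH 8.0 phosphate buffer addition, at 390 nm/495 nm. Inhibition curve built from a range of test compound concentrations.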

[3] = tested on: Pseudomonas aeruginosa strain ATCC27853; assay: Antimicrobial activity, MIC by broth microdilution; type: cell-based; details: ATCC27853, 18 h, cation-adjusted Mueller-Hinton broth, about 5×10^5 CFU/mL, 35° C., about 18 hours, read-out: MIC Pseudomonas aeruginosa ATCC27853
Method in brief: (§1)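 MIC read by eye as the lowest drug level lacking visible growth after roughly 18 h at 35° C. Cells from heart infusion agar, set to McFarland 0.5 and diluted, were inoculated at about 5×10^5 CFU/mL into cation-adjusted Mueller-Hinton broth with compound, per adapted CLSI microdilution.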

[4] = tested on: Escherichia coli strain ATCC25922; assay: Antimicrobial activity, MIC by broth microdilution; type: cell-based; details: ATCC25922, 18 h, cation-adjusted Mueller-Hinton broth, about 5×10^5 CFU/mL, 35° C., about 18 hours, read-out: MIC Escherichia coli ATCC25922
Method in brief: as §1

[5] = tested on: Klebsiella pneumoniae strain ATCC13883; assay: Antimicrobial activity, MIC by broth microdilution; type: cell-based; details: ATCC13883, cation-adjusted Mueller-Hinton broth, about 5×10^5 CFU/mL, 35° C., about 18 hours, read-out: MIC Klebsiella pneumoniae ATCC13883
Method in brief: as §1

SMILES	IC50 [1] [nM]	IC50 [2] [nM]	MIC [3] [µg/mL]	MIC [4] [µg/mL]	MIC [5] [µg/mL]
C[C@H](O)c1nccn1Cc1cc(-c2ccc(C#CC3CC3CO)cc2)on1 (stereo in doubt) [Compound 7, (1S)-1-(1-{[5-(4-{[trans-2-(hydroxymethyl)cyclopropyl]ethynyl}phenyl)-1,2-oxazol-3-yl]methyl}-1H-imidazol-2-yl)ethan-1-ol]	4.44	15.4	16 (≈ 44 µM)	0.25 (≈ 0.688 µM)	0.5 (≈ 1.38 µM)
C[C@H](O)c1nccn1Cc1cc(-c2ccc(C#CC3CC3N)cc2)on1 (stereo in doubt) [Compound 9, (1S)-1-{1-[(5-(4-[(trans-2-aminocyclopropyl)ethynyl]phenyl}-1,2-oxazol-3-yl)methyl]-1H-imidazol-2-yl}ethan-1-ol]	22.3	183	16 (≈ 45.9 µM)	–	4 (≈ 11.5 µM)
C[C@H](O)c1nccn1Cc1cc(-c2ccc(C#CCCCO)cc2)on1 [Compound 1, 5-{4-[3-({2-[(1S)-1-Hydroxyethyl]-1H-imidazol-1-yl}methyl)-1,2-oxazol-5-yl]phenyl}pent-4-yn-1-ol]	13.2	51	64 (≈ 182 µM)	1 (≈ 2.85 µM)	2 (≈ 5.69 µM)
C[C@H](O)c1nccn1Cc1cc(-c2ccc(C#CCCCO)c(F)c2)on1 [Compound 2, 5-{2-fluoro-4-[3-({2-[(1S)-1-hydroxyethyl]-1H-imidazol-1-yl}methyl)-1,2-oxazol-5-yl]phenyl} pent-4-yn-1-ol]	6.92	16.9	64 (≈ 173 µM)	1 (≈ 2.71 µM)	2 (≈ 5.41 µM)
C[C@H](O)c1nccn1Cc1cc(-c2ccc(C#CCCCO)cc2F)on1 [Compound 3, 5-{3-fluoro-4-[3-({2-[(1S)-1-hydroxyethyl]-1H-imidazol-1-yl}methyl)-1,2-oxazol-5-yl]phenyl}pent-4-yn-1-ol]	4.36	16.1	32 (≈ 86.6 µM)	0.5 (≈ 1.35 µM)	1 (≈ 2.71 µM)
C[C@H](O)c1nccn1Cc1cc(-c2ccc(C#CC3(N)CC3)cc2)on1 [Compound 4, (1S)-1-{1-[(5-{4-[(1-Aminocyclopropyl)ethynyl]phenyl}-1,2-oxazol-3-yl)methyl]-1H-imidazol-2-yl}ethan-1-ol]	16.7	–	64 (≈ 184 µM)	0.5 (≈ 1.44 µM)	1 (≈ 2.87 µM)
Cc1cc(C#CCCCO)ccc1-c1cc(Cn2ccnc2[C@H](C)O)no1 [Compound 5, 5-{4-[3-({2-[(1S)-1-hydroxyethyl]-1H-imidazol-1-yl}methyl)-1,2-oxazol-5-yl]-3-methylphenyl} pent-4-yn-1-ol]	132	–	> 64	–	16 (≈ 43.8 µM)
C[C@H](O)c1nccn1Cc1cc(-c2ccc(C#CCCO)cc2)on1 [Compound 6, 4-{4-[3-({2-[(1S)-1-hydroxyethyl]-1H-imidazol-1-yl}methyl)-1,2-oxazol-5-yl]phenyl}but-3-yn-1-ol]	22.6	–	64 (≈ 190 µM)	–	4 (≈ 11.9 µM)
C[C@H](O)c1nccn1Cc1cc(-c2ccc(C#C[C@@H]3[C@H]4CNC[C@@H]34)cc2)on1 [Compound 10, (1S)-1-(1-{[5-(4-{[(1R,5S,6s)-3-Azabicyclo[3.1.0]hexan-6-yl]ethynyl}phenyl)-1,2-oxazol-3-yl]methyl}-1H-imidazol-2-yl)ethan-1-ol]	14.3	123	8 (≈ 21.4 µM)	–	–
C[C@H](O)c1nccn1Cc1cc(-c2ccc(C#C[C@@H]3[C@H]4CN(C[C@H](O)CO)C[C@@H]34)cc2)on1 [Compound 11, (2S)-3-[(1R,5S,6R)-6-({4-[3-({2-[(1S)-1-Hydroxyethyl]-1H-imidazol-1-yl}methyl)-1,2-oxazol-5-yl]phenyl}ethynyl)-3-azabicyclo[3.1.0]hexan-3-yl]propan-1,2-diol]	3.78	102	8 (≈ 17.8 µM)	1 (≈ 2.23 µM)	2 (≈ 4.46 µM)
C[C@H](O)c1nccn1Cc1cc(-c2ccc(C#CC3CN(C)C3)cc2)on1 [Compound 12, (1S)-1-{1-[(5-{4-[(1-Methylazetidin-3-yl)ethynyl]phenyl}-1,2-oxazol-3-yl)methyl]-1H-imidazol-2-yl}ethan-1-ol]	46	–	32 (≈ 88.3 µM)	–	16 (≈ 44.1 µM)
C[C@H](O)c1nccn1Cc1cc(-c2ccc(C#CC3CN(C[C@H](O)CO)C3)cc2)on1 [Compound 13]	21.9	651	32 (≈ 75.7 µM)	–	16 (≈ 37.9 µM)
C[C@H](O)c1nccn1Cc1cc(-c2c(F)cc(C#CCCCO)cc2F)on1 [Compound 14, 5-{3,5-Difluoro-4-[3-({2-[(1S)-1-hydroxyethyl]-1H-imidazol-1-yl}methyl)-1,2-oxazol-5-yl]phenyl}pent-4-yn-1-ol]	15.4	–	64 (≈ 165 µM)	–	8 (≈ 20.7 µM)
C[C@H](O)c1nccn1Cc1cc(-c2ccc(C#C[C@H]3C[C@@H]3[C@@H](O)CN)cc2)on1 [Compound 15, (R)-2-Amino-1-((1 S,2S)-2-((4-(3-((2-((S)-1-hydroxyethyl)-1H-imidazol-1-yl)methyl)isoxazol-5-yl)phenyl)ethynyl)cyclopropyl)ethanol]	8.4	–	16 (≈ 40.8 µM)	–	64 (≈ 163 µM)
C[C@H](O)c1nccn1[C@H](CO)c1cc(-c2ccc(C#CCCCO)cc2)on1 [Compound 16, 5-(4-{3-[(1S)-2-Hydroxy-1-{2-[(1S)-1-hydroxyethyl]-1H-imidazol-1-yl}ethyl]-1,2-oxazol-5-yl}phenyl)pent-4-yn-1-ol]	2.6	–	16 (≈ 41.9 µM)	–	4 (≈ 10.5 µM)
C[C@H](O)c1nccn1Cc1cc(-c2ccc(C#C[C@@H]3[C@H]4CN(CCO)C[C@@H]34)cc2)on1 [Compound 19, (1S)-1-(1-{[5-(4-{[(1R,5S,6s)-3-(2-Hydroxyethyl)-3-azabicyclo[3.1.0]hexan-6-yl]ethynyl}phenyl)-1,2-oxazol-3-yl]methyl}-1H-imidazol-2-yl)ethan-1-ol]	2.03	123	8 (≈ 19.1 µM)	0.5 (≈ 1.19 µM)	1 (≈ 2.39 µM)
